Source: PubChem BioAssay (NCI)
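Each compound was tested at five concentrations against cells in 96-well plates for 48 hours. TGI denotes the concentration required for complete inhibition of growth.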

Key:
Experiment in all cases: NCI-60 cell line screen, 48 h
[1] = test system: K-562 leukemia
[2] = test system: NCI-H460 lung
[3] = test system: OVCAR-3 ovarian
[4] = test system: SR leukemia
[5] = test system: A549 NSCLC
[6] = test system: HT29 colon
[7] = test system: SF-539 CNS
[8] = test system: RXF 393 renal
[9] = test system: CAKI-1 renal
[10] = test system: MOLT-4 leukemia
[11] = test system: SNB-19 CNS
[12] = test system: M19-MEL melanoma
[13] = test system: DMS 114 small cell lung
[14] = test system: RXF-631 renal
[15] = test system: TK-10 renal
[16] = test system: SK-MEL-2 melanoma
[17] = test system: KM12 colon
[18] = test system: HOP-62 NSCLC
[19] = test system: UO-31 renal
[20] = test system: IGROV1 ovarian
[21] = test system: UACC-257 melanoma
[22] = test system: UACC-62 melanoma
[23] = test system: M14 melanoma
[24] = test system: SK-MEL-28 melanoma
[25] = test system: NCI-H522 lung
[26] = test system: XF 498 CNS
[27] = test system: EKVX NSCLC
[28] = test system: HCT-116 colon
[29] = test system: KM20L2 colon
[30] = test system: HCT-15 colon
[31] = test system: SW-620 colon
[32] = test system: SF-268 CNS
[33] = test system: SF-295 CNS
[34] = test system: HOP-18 NSCLC
[35] = test system: SN12C renal
[36] = test system: SNB-75 CNS
[37] = test system: CCRF-CEM leukemia
[38] = test system: HOP-92 NSCLC
[39] = test system: RPMI-8226 leukemia
[40] = test system: 786-0 renal
[41] = test system: ACHN renal
[42] = test system: COLO 205 colon
[43] = test system: MALME-3M melanoma
[44] = test system: SK-OV-3 ovarian
[45] = test system: NCI-H226 lung
[46] = test system: OVCAR-4 ovarian
[47] = test system: HL-60(TB) leukemia
[48] = test system: OVCAR-8 ovarian
[49] = test system: NCI-H23 lung
[50] = test system: DLD-1 colon
[51] = test system: LXFL 529 NSCLC
[52] = test system: SK-MEL-5 melanoma
[53] = test system: U251 CNS

Question: With `Brc1ccc(N=c2nc3ccccn3n3nc(-c4ccccc4)cc23)cc1` as the molecule, how does the TGI [1] read?
Answer: > 100 µM

Question: What about the TGI [2] of the same molecule?
Answer: > 100 µM

Question: What about the TGI [3] of the same molecule?
Answer: 72.1 µM

Question: And the TGI [4]?
Answer: > 100 µM

Question: What about the TGI [5] of the same molecule?
Answer: > 100 µM

Question: And the TGI [6]?
Answer: > 100 µM

Question: What about the TGI [7] of the same molecule?
Answer: > 100 µM

Question: What about the TGI [8] of the same molecule?
Answer: 51.1 µM

Question: What about the TGI [9] of the same molecule?
Answer: 59.9 µM

Question: What about the TGI [10] of the same molecule?
Answer: > 100 µM

Question: And the TGI [11]?
Answer: 95.1 µM

Question: And the TGI [12]?
Answer: > 100 µM

Question: And the TGI [13]?
Answer: > 100 µM

Question: What about the TGI [14] of the same molecule?
Answer: > 100 µM

Question: And the TGI [15]?
Answer: 95.4 µM

Question: And the TGI [16]?
Answer: > 100 µM

Question: What about the TGI [17] of the same molecule?
Answer: > 100 µM

Question: What about the TGI [18] of the same molecule?
Answer: 32.8 µM

Question: And the TGI [19]?
Answer: > 100 µM

Question: And the TGI [20]?
Answer: > 100 µM

Question: And the TGI [21]?
Answer: > 100 µM

Question: What about the TGI [22] of the same molecule?
Answer: 63.3 µM

Question: What about the TGI [23] of the same molecule?
Answer: 33 µM

Question: What about the TGI [24] of the same molecule?
Answer: > 100 µM

Question: And the TGI [25]?
Answer: 88.2 µM

Question: And the TGI [26]?
Answer: 77 µM

Question: What about the TGI [27] of the same molecule?
Answer: > 100 µM

Question: What about the TGI [28] of the same molecule?
Answer: > 100 µM

Question: And the TGI [29]?
Answer: > 100 µM

Question: And the TGI [30]?
Answer: > 100 µM

Question: What about the TGI [31] of the same molecule?
Answer: > 100 µM

Question: What about the TGI [32] of the same molecule?
Answer: > 100 µM

Question: What about the TGI [33] of the same molecule?
Answer: > 100 µM

Question: And the TGI [34]?
Answer: > 100 µM

Question: What about the TGI [35] of the same molecule?
Answer: > 100 µM

Question: And the TGI [36]?
Answer: > 100 µM

Question: What about the TGI [37] of the same molecule?
Answer: > 100 µM

Question: What about the TGI [38] of the same molecule?
Answer: 87.2 µM

Question: What about the TGI [39] of the same molecule?
Answer: > 100 µM

Question: What about the TGI [40] of the same molecule?
Answer: 65.2 µM

Question: And the TGI [41]?
Answer: > 100 µM

Question: What about the TGI [42] of the same molecule?
Answer: > 100 µM

Question: And the TGI [43]?
Answer: 26.7 µM

Question: And the TGI [44]?
Answer: > 100 µM

Question: And the TGI [45]?
Answer: > 100 µM

Question: And the TGI [46]?
Answer: 20.7 µM

Question: And the TGI [47]?
Answer: > 100 µM

Question: And the TGI [48]?
Answer: > 100 µM

Question: And the TGI [49]?
Answer: > 100 µM

Question: And the TGI [50]?
Answer: 47.7 µM

Question: What about the TGI [51] of the same molecule?
Answer: > 100 µM

Question: What about the TGI [52] of the same molecule?
Answer: > 100 µM

Question: What about the TGI [53] of the same molecule?
Answer: > 100 µM
